Assay results: PubChem BioAssay (NCI)
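Exposure lasted 48 hours, with cells grown in 96-well plates and compounds tested at five concentrations. GI50 marks 50% less growth. At the TGI there is no net growth.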

Columns and labels:
Test in all cases: inhibition of tumour cell growth, NCI panel, 48 h
786-0 renal = system: 786-0 renal
A498 renal = system: A498 renal
A549 NSCLC = system: A549 NSCLC
ACHN renal = system: ACHN renal
BT-549 breast = system: BT-549 breast
CAKI-1 renal = system: CAKI-1 renal
CCRF-CEM leukemia = system: CCRF-CEM leukemia
COLO 205 colon = system: COLO 205 colon
DU-145 prostate = system: DU-145 prostate
HCC-2998 colon = system: HCC-2998 colon
HCT-116 colon = system: HCT-116 colon
HCT-15 colon = system: HCT-15 colon
HL-60(TB) leukemia = system: HL-60(TB) leukemia
HOP-62 NSCLC = system: HOP-62 NSCLC
HOP-92 NSCLC = system: HOP-92 NSCLC
HS 578T breast = system: HS 578T breast
HT29 colon = system: HT29 colon
IGROV1 ovarian = system: IGROV1 ovarian
K-562 leukemia = system: K-562 leukemia
KM12 colon = system: KM12 colon
LOX IMVI melanoma = system: LOX IMVI melanoma
M14 melanoma = system: M14 melanoma
MALME-3M melanoma = system: MALME-3M melanoma
MCF7 breast = system: MCF7 breast
MDA-MB-231 breast = system: MDA-MB-231 breast
MOLT-4 leukemia = system: MOLT-4 leukemia
NCI-H226 lung = system: NCI-H226 lung
NCI-H460 lung = system: NCI-H460 lung
NCI-H522 lung = system: NCI-H522 lung
NCI/ADR-RES ovarian = system: NCI/ADR-RES ovarian
OVCAR-4 ovarian = system: OVCAR-4 ovarian
OVCAR-5 ovarian = system: OVCAR-5 ovarian
OVCAR-8 ovarian = system: OVCAR-8 ovarian
PC-3 prostate = system: PC-3 prostate
RPMI-8226 leukemia = system: RPMI-8226 leukemia
RXF 393 renal = system: RXF 393 renal
SF-268 CNS = system: SF-268 CNS
SF-295 CNS = system: SF-295 CNS
SF-539 CNS = system: SF-539 CNS
SK-MEL-5 melanoma = system: SK-MEL-5 melanoma
SK-OV-3 ovarian = system: SK-OV-3 ovarian
SN12C renal = system: SN12C renal
SNB-19 CNS = system: SNB-19 CNS
SNB-75 CNS = system: SNB-75 CNS
SR leukemia = system: SR leukemia
SW-620 colon = system: SW-620 colon
T-47D breast = system: T-47D breast
TK-10 renal = system: TK-10 renal
U251 CNS = system: U251 CNS
UACC-257 melanoma = system: UACC-257 melanoma
UACC-62 melanoma = system: UACC-62 melanoma
UO-31 renal = system: UO-31 renal

Q: With CC(=O)Nc1cccc(-n2cnc3cc(-c4ccc(O)cc4)ccc32)c1 as the compound, how does the GI50 (786-0 renal) read?
A: 0.78 µM

Q: What about the TGI (786-0 renal) of the same compound?
A: 23.2 µM

Q: And the GI50 (A498 renal)?
A: 0.249 µM

Q: And the TGI (A498 renal)?
A: 0.982 µM

Q: And the GI50 (A549 NSCLC)?
A: 0.73 µM

Q: What about the TGI (A549 NSCLC) of the same compound?
A: 80.9 µM

Q: And the GI50 (ACHN renal)?
A: 0.894 µM

Q: And the TGI (ACHN renal)?
A: 16.8 µM

Q: And the GI50 (BT-549 breast)?
A: 0.342 µM

Q: What about the TGI (BT-549 breast) of the same compound?
A: 11.2 µM

Q: And the GI50 (CAKI-1 renal)?
A: 0.668 µM

Q: What about the TGI (CAKI-1 renal) of the same compound?
A: 14 µM

Q: What about the GI50 (CCRF-CEM leukemia) of the same compound?
A: 0.515 µM

Q: And the TGI (CCRF-CEM leukemia)?
A: 68.2 µM

Q: And the GI50 (COLO 205 colon)?
A: 3.86 µM

Q: What about the TGI (COLO 205 colon) of the same compound?
A: 40.1 µM

Q: And the GI50 (DU-145 prostate)?
A: 1.76 µM

Q: And the TGI (DU-145 prostate)?
A: 23.6 µM

Q: What about the GI50 (HCC-2998 colon) of the same compound?
A: 3.46 µM

Q: What about the TGI (HCC-2998 colon) of the same compound?
A: 49 µM

Q: What about the GI50 (HCT-116 colon) of the same compound?
A: 0.413 µM

Q: And the TGI (HCT-116 colon)?
A: 27.2 µM

Q: What about the GI50 (HCT-15 colon) of the same compound?
A: 0.333 µM

Q: What about the TGI (HCT-15 colon) of the same compound?
A: 18.9 µM

Q: And the GI50 (HL-60(TB) leukemia)?
A: 0.313 µM

Q: And the TGI (HL-60(TB) leukemia)?
A: 10.6 µM

Q: And the GI50 (HOP-62 NSCLC)?
A: 0.82 µM

Q: What about the TGI (HOP-62 NSCLC) of the same compound?
A: 22.5 µM

Q: What about the GI50 (HOP-92 NSCLC) of the same compound?
A: 0.94 µM

Q: What about the TGI (HOP-92 NSCLC) of the same compound?
A: 28.8 µM

Q: And the GI50 (HS 578T breast)?
A: 0.254 µM

Q: What about the TGI (HS 578T breast) of the same compound?
A: 2.46 µM

Q: What about the GI50 (HT29 colon) of the same compound?
A: 3.24 µM

Q: What about the TGI (HT29 colon) of the same compound?
A: 19 µM

Q: And the GI50 (IGROV1 ovarian)?
A: 0.696 µM

Q: And the TGI (IGROV1 ovarian)?
A: 29.1 µM

Q: And the GI50 (K-562 leukemia)?
A: 0.169 µM

Q: What about the TGI (K-562 leukemia) of the same compound?
A: > 100 µM

Q: And the GI50 (KM12 colon)?
A: 5.42 µM

Q: And the TGI (KM12 colon)?
A: 68.2 µM

Q: What about the GI50 (LOX IMVI melanoma) of the same compound?
A: 0.523 µM

Q: And the TGI (LOX IMVI melanoma)?
A: 16.3 µM

Q: And the GI50 (M14 melanoma)?
A: 0.289 µM

Q: And the TGI (M14 melanoma)?
A: 77 µM

Q: And the GI50 (MALME-3M melanoma)?
A: 0.583 µM

Q: What about the TGI (MALME-3M melanoma) of the same compound?
A: 49.8 µM

Q: What about the GI50 (MCF7 breast) of the same compound?
A: 0.377 µM

Q: What about the TGI (MCF7 breast) of the same compound?
A: 22.6 µM

Q: What about the GI50 (MDA-MB-231 breast) of the same compound?
A: 0.46 µM

Q: And the TGI (MDA-MB-231 breast)?
A: > 100 µM

Q: And the GI50 (MOLT-4 leukemia)?
A: 0.428 µM

Q: What about the TGI (MOLT-4 leukemia) of the same compound?
A: 16.2 µM

Q: And the GI50 (NCI-H226 lung)?
A: 0.779 µM

Q: And the TGI (NCI-H226 lung)?
A: 4.26 µM

Q: What about the GI50 (NCI-H460 lung) of the same compound?
A: 0.386 µM

Q: And the TGI (NCI-H460 lung)?
A: 14.6 µM

Q: And the GI50 (NCI-H522 lung)?
A: 0.176 µM

Q: What about the TGI (NCI-H522 lung) of the same compound?
A: 0.503 µM

Q: What about the GI50 (NCI/ADR-RES ovarian) of the same compound?
A: 0.428 µM

Q: What about the TGI (NCI/ADR-RES ovarian) of the same compound?
A: 11.5 µM

Q: And the GI50 (OVCAR-4 ovarian)?
A: 2.42 µM

Q: And the TGI (OVCAR-4 ovarian)?
A: 43.1 µM

Q: And the GI50 (OVCAR-5 ovarian)?
A: 10.6 µM

Q: What about the TGI (OVCAR-5 ovarian) of the same compound?
A: > 100 µM

Q: And the GI50 (OVCAR-8 ovarian)?
A: 0.618 µM

Q: What about the TGI (OVCAR-8 ovarian) of the same compound?
A: 17 µM

Q: What about the GI50 (PC-3 prostate) of the same compound?
A: 1.43 µM

Q: What about the TGI (PC-3 prostate) of the same compound?
A: 42.1 µM

Q: What about the GI50 (RPMI-8226 leukemia) of the same compound?
A: 0.494 µM

Q: And the TGI (RPMI-8226 leukemia)?
A: 9.23 µM

Q: What about the GI50 (RXF 393 renal) of the same compound?
A: 0.834 µM

Q: And the TGI (RXF 393 renal)?
A: 8.27 µM

Q: What about the GI50 (SF-268 CNS) of the same compound?
A: 0.982 µM

Q: And the TGI (SF-268 CNS)?
A: 57.8 µM

Q: And the GI50 (SF-295 CNS)?
A: 0.601 µM

Q: What about the TGI (SF-295 CNS) of the same compound?
A: 11 µM

Q: And the GI50 (SF-539 CNS)?
A: 0.371 µM

Q: And the TGI (SF-539 CNS)?
A: 5.95 µM

Q: What about the GI50 (SK-MEL-5 melanoma) of the same compound?
A: 0.316 µM

Q: What about the TGI (SK-MEL-5 melanoma) of the same compound?
A: 15.8 µM

Q: What about the GI50 (SK-OV-3 ovarian) of the same compound?
A: 1.16 µM

Q: And the TGI (SK-OV-3 ovarian)?
A: 22.1 µM

Q: What about the GI50 (SN12C renal) of the same compound?
A: 0.546 µM

Q: And the TGI (SN12C renal)?
A: 41.4 µM

Q: What about the GI50 (SNB-19 CNS) of the same compound?
A: 0.872 µM

Q: What about the TGI (SNB-19 CNS) of the same compound?
A: > 100 µM

Q: And the GI50 (SNB-75 CNS)?
A: 0.232 µM

Q: And the TGI (SNB-75 CNS)?
A: 0.929 µM

Q: What about the GI50 (SR leukemia) of the same compound?
A: 0.182 µM

Q: And the TGI (SR leukemia)?
A: > 100 µM

Q: And the GI50 (SW-620 colon)?
A: 0.368 µM

Q: What about the TGI (SW-620 colon) of the same compound?
A: 36.5 µM

Q: What about the GI50 (T-47D breast) of the same compound?
A: 0.534 µM

Q: What about the TGI (T-47D breast) of the same compound?
A: 19.6 µM

Q: What about the GI50 (TK-10 renal) of the same compound?
A: 5.95 µM

Q: And the TGI (TK-10 renal)?
A: 47.4 µM

Q: What about the GI50 (U251 CNS) of the same compound?
A: 0.365 µM

Q: And the TGI (U251 CNS)?
A: 30.2 µM

Q: And the GI50 (UACC-257 melanoma)?
A: 0.716 µM

Q: What about the TGI (UACC-257 melanoma) of the same compound?
A: 45.5 µM

Q: What about the GI50 (UACC-62 melanoma) of the same compound?
A: 0.35 µM

Q: And the TGI (UACC-62 melanoma)?
A: 17.6 µM

Q: And the GI50 (UO-31 renal)?
A: 0.716 µM

Q: What about the TGI (UO-31 renal) of the same compound?
A: 15 µM
